Source: publication PMC10447267, “Assessment of the potential of the MET inhibitor tepotinib to affect the pharmacokinetics of CYP3A4 and P-gp substrates” (Investigational New Drugs, 2023)
Like-named read-outs stand apart in the source and are kept apart here.

How the values were obtained:
CYP1A2 = molecular target: T1, CYP1A2 (Homo sapiens, UniProt P05177); assay: CYP1A2 inhibition in pooled human liver microsomes; assay type: in vitro ADME; settings: for inhibition at 49.5 µM: both sexes, human, microsomes
T1 construct: pooled mixed-gender human liver microsomes; from tissue; host or cells: pooled mixed-gender human liver microsomes
T1 sequence (P05177 1-516): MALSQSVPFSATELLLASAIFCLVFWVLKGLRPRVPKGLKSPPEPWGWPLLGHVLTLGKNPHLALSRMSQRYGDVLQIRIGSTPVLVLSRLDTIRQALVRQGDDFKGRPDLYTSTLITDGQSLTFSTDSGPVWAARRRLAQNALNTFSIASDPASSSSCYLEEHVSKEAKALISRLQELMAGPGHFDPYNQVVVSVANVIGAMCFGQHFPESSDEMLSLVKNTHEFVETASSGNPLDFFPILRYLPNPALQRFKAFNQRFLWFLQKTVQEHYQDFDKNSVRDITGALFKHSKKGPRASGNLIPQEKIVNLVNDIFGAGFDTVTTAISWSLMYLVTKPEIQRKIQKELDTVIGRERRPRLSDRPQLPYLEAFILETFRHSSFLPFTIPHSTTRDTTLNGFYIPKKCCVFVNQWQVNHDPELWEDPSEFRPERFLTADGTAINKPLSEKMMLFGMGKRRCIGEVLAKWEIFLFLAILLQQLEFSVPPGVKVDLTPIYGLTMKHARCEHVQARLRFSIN
Experimental: (§1) The potential of tepotinib and MSC2571109A to inhibit CYP450 enzymes CYP1A2, 2A6, 2B6, 2C8, 2C9, 2C19, 2D6, 2E1, and 3A4/5 in vitro was evaluated using CYP-catalyzed reactions in pooled mixed-gender human liver microsomes using specific substrates and liquid chromatography/tandem mass spectrometry (LC–MS/MS) readouts. […] Testosterone 6β-hydroxylation was assessed in the MSC2571109A study. Assessments of mechanism-based inhibition of the above listed CYP450 enzymes were conducted after pre-incubation of the microsomes with tepotinib or MSC2571109A. A brief summary of the incubation methods, including details of substrates used for the other CYP enzymes (which are not pertinent to this article) are presented in Online Resource 1. The LC–MS/MS-based methods used were consistent with those previously described in the literature.

CYP2B6 [1] = molecular target: T2, CYP2B6 (Homo sapiens, UniProt P20813); assay: CYP2B6 inhibition in pooled human liver microsomes; assay type: in vitro ADME; settings: Efavirenz 8-hydroxylation; for inhibition at 49.5 µM: both sexes, human, pooled human liver microsomes, probe efavirenz
T2 construct: pooled mixed-gender human liver microsomes; from tissue; host or cells: pooled mixed-gender human liver microsomes
T2 sequence (P20813 1-491): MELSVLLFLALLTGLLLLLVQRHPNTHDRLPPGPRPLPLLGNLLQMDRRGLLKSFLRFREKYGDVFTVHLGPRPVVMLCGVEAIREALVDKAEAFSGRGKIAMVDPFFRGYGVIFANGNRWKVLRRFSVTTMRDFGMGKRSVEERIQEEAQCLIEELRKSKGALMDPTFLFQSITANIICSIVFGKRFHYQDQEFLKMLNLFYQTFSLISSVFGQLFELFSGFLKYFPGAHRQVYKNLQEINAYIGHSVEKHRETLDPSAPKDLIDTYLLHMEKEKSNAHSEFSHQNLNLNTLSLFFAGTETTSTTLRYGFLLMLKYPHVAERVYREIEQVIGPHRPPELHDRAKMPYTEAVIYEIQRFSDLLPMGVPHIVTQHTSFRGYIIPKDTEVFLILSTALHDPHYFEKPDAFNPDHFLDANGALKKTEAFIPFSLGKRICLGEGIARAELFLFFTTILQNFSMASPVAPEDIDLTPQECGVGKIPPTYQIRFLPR
Experimental: as §1

CYP2C9 = molecular target: T3, CYP2C9 (Homo sapiens, UniProt P11712); assay: CYP2C9 inhibition in pooled human liver microsomes; assay type: in vitro ADME; settings: for inhibition at 49.5 µM: both sexes, human, pooled human liver microsomes, probe diclofenac
T3 construct: pooled mixed-gender human liver microsomes; from tissue; host or cells: pooled mixed-gender human liver microsomes
Experimental: as §1

CYP2D6 = molecular target: T4, CYP2D6 (Homo sapiens, UniProt P10635); assay: biochemical; assay type: in vitro ADME; settings: for inhibition at 49.5 µM: both sexes, human, microsomes
T4 construct: pooled mixed-gender human liver microsomes; from tissue; host or cells: pooled mixed-gender human liver microsomes
Experimental: as §1

CYP2E1 = molecular target: T5, CYP2E1 (Homo sapiens, UniProt P05181); assay: biochemical; assay type: in vitro ADME; settings: for inhibition at 49.5 µM: both sexes, human, microsomes
T5 construct: pooled mixed-gender human liver microsomes; from tissue; host or cells: pooled mixed-gender human liver microsomes
Experimental: as §1

CYP2B6 [2] = assay: CYP2B6 activity induction in primary human hepatocyte cultures; assay type: in vitro ADME; settings: enzyme activity quantification
Experimental: (§2) In vitro studies in primary human hepatocyte cultures were conducted to assess the potential of tepotinib to induce human CYP1A1/2, 2B6 and 3A4/5 activity, the latter based on testosterone 6β-hydroxylation reactions (Online Resource 2). […] The studies included positive (rifampin) and vehicle (DMSO) controls. A negative control (flumazenil) was also included in the mRNA studies. The study designs, test systems and selection of prototypical inducers used in these studies were consistent with PhRMA, FDA and EMA guidelines.

CYP3A4 mRNA = CYP3A4 mRNA induction in human hepatocyte cultures; assay type: in vitro ADME
Experimental: as §2

[3] = Safety and tolerability in the two clinical studies; assay type: in vivo, human; settings: healthy participants; tepotinib 500 mg once daily, both studies
Experimental: Safety and tolerability were also assessed throughout each study.

[4] = human mass balance study; cited from earlier work
[5] = substance not given, taken as tepotinib; ref the healthcare business of Merck KGaA, Darmstadt, Germany, data on file; cited from earlier work

T4 sequence (P10635 whole entry): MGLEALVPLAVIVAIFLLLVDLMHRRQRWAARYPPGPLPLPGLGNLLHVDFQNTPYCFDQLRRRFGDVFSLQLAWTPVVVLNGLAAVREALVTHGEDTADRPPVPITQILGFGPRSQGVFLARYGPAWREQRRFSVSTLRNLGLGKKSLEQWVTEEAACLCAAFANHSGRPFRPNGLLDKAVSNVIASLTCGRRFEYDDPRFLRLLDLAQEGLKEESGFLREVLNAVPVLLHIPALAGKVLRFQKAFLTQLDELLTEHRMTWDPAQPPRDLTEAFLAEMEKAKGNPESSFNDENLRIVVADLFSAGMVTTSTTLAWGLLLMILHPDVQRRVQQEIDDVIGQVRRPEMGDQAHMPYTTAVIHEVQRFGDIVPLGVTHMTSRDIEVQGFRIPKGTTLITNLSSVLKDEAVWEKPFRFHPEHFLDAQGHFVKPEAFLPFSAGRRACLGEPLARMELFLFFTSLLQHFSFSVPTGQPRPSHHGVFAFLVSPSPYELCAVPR
T3 sequence (P11712 whole entry): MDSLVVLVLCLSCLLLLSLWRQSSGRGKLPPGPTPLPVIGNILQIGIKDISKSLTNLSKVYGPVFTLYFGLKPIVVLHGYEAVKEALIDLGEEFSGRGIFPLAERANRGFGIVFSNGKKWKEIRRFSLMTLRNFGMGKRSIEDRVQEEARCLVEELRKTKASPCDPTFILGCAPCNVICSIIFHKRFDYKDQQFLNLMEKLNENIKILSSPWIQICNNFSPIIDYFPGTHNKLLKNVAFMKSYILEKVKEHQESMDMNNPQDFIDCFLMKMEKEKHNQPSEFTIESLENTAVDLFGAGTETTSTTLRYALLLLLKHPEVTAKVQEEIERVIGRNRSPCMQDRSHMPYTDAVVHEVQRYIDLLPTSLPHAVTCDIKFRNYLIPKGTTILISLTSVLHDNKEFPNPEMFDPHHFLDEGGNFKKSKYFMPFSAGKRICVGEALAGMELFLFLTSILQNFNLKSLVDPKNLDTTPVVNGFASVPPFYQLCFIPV
T5 sequence (P05181 whole entry): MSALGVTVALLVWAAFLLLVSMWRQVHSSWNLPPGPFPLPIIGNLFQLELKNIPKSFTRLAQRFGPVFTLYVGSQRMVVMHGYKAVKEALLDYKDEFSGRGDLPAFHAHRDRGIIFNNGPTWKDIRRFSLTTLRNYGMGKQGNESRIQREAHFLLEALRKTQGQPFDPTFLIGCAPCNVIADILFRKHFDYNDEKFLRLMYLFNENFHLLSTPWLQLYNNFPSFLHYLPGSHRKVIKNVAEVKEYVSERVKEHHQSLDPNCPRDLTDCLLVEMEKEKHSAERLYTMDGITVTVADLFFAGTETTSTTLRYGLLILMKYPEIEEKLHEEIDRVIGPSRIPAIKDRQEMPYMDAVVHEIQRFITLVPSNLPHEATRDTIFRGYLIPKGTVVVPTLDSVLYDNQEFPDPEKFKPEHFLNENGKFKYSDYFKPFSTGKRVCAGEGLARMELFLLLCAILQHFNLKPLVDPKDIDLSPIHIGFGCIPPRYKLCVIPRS

CN1CCC(COc2cnc(-c3cccc(Cn4nc(-c5cccc(C#N)c5)ccc4=O)c3)nc2)CC1 [tepotinib]
IC50 (CYP1A2): > 49.5 µM | Potential for time-dependent inhibition (CYP1A2; Phenacetin O-dealkylation): Little or No | inhibition at 49.5 µM (CYP1A2; Phenacetin O-dealkylation, 30-min preincubation, read-out: Time-dependent inhibition, maximum inhibition at 49.5 µM): 26% | inhibition at 49.5 µM (CYP1A2; Phenacetin O-dealkylation, zero-minute preincubation, read-out: Direct inhibition, maximum inhibition at 49.5 µM): 11% | IC50 (CYP1A2; read-out: Time-dependent inhibition IC50, Phenacetin O-dealkylation, 30-min preincubation): > 49.5 µM | Potential for time-dependent inhibition (CYP2B6 [1]): Little or No | IC50 (CYP2B6 [1]; 30-min preincubation, read-out: Time-dependent inhibition IC50): 44 µM | inhibition at 49.5 µM (CYP2B6 [1]; 30-min preincubation, read-out: Time-dependent inhibition, maximum inhibition at 49.5 µM): 52% | inhibition at 49.5 µM (CYP2B6 [1]; zero-minute preincubation, read-out: Direct inhibition, maximum inhibition at 49.5 µM): 34% | IC50 (CYP2B6 [1]; human liver microsomes, zero-minute preincubation, read-out: Direct inhibition IC50): > 49.5 µM | Potential for time-dependent inhibition (CYP2C9; Diclofenac 4-hydroxylation): Little or No | IC50 (CYP2C9; Diclofenac 4-hydroxylation, 30-min preincubation, read-out: Time-dependent inhibition IC50): 23 µM | inhibition at 49.5 µM (CYP2C9; Diclofenac 4-hydroxylation, 30-min preincubation, read-out: Time-dependent inhibition, maximum inhibition at 49.5 µM): 52% | inhibition at 49.5 µM (CYP2C9; Diclofenac 4-hydroxylation, zero-minute preincubation, read-out: Direct inhibition, maximum inhibition at 49.5 µM): 58% | IC50 (CYP2C9; human liver microsomes, Diclofenac 4-hydroxylation, zero-minute preincubation, read-out: Direct inhibition IC50): 27 µM | Ki (CYP2C9; human liver microsomes, direct inhibition, read-out: Ki, CYP2C9-catalyzed probe substrate reaction): ≥ 11 µM | IC50 (CYP2D6): > 49.5 µM | Potential for time-dependent inhibition (CYP2D6; Dextromethorphan O-demethylation): Little or No | inhibition at 49.5 µM (CYP2D6; Dextromethorphan O-demethylation, 30-min preincubation, read-out: Time-dependent inhibition, maximum inhibition at 49.5 µM): 24% | inhibition at 49.5 µM (CYP2D6; Dextromethorphan O-demethylation, zero-minute preincubation, read-out: Direct inhibition, maximum inhibition at 49.5 µM): 50% | IC50 (CYP2D6; read-out: Time-dependent inhibition IC50, Dextromethorphan O-demethylation, 30-min preincubation): > 49.5 µM | IC50 (CYP2E1): > 49.5 µM | Potential for time-dependent inhibition (CYP2E1; Chlorzoxazone 6-hydroxylation): Little or No | inhibition at 49.5 µM (CYP2E1; Chlorzoxazone 6-hydroxylation, 30-min preincubation, read-out: Time-dependent inhibition, maximum inhibition at 49.5 µM): 17% | inhibition at 49.5 µM (CYP2E1; Chlorzoxazone 6-hydroxylation, zero-minute preincubation, read-out: Direct inhibition, maximum inhibition at 49.5 µM): 19% | IC50 (CYP2E1; read-out: Time-dependent inhibition IC50, Chlorzoxazone 6-hydroxylation, 30-min preincubation): > 49.5 µM | Induction of CYP2B6 activity (CYP2B6 [2]): less than 40 % of positive control | Increase in CYP3A4 mRNA (CYP3A4 mRNA; human hepatocyte cultures, maximum (up to), concentration-dependent): up to 7 fold | Effect on CYP3A4 mRNA (in words) (CYP3A4 mRNA; in vitro): increased CYP3A4 mRNA | Safety and tolerability (in words) [3]: safe and well tolerated | Share of total circulating radioactivity in plasma [4]: 55% | Geometric mean free Cmax [5]: 52.4 nM
